Laboratory results: the NIST ThermoML archive (doi:10.1016/j.jct.2016.09.007)

Assay: xn = mol fraction of the nth substance listed
Conditions: 93.2 kPa, Liquid; for speed of sound: Frequency=3 MHz, Sing-around technique in a fixed-path interferometer; for mass density: Vibrating tube method

CCCC(=O)[O-].CCCC[NH3+] [n-butylammonium butanoate] + CO
Conditions	mass density, 293.15 K [kg/m3]	mass density, 298.15 K [kg/m3]	speed of sound, 293.15 K [m/s]	speed of sound, 298.15 K [m/s]	speed of sound, 303.15 K [m/s]
x1 = 0.0503	827.536	823.196	1187.9	1171.5	1155.3
x1 = 0.0999	850.303	846.198	1233.9	1217.6	1201.5
x1 = 0.1491	866.376	862.414	1268.2	1251.9	1235.9
x1 = 0.2011	878.773	874.958	1295.6	1279.4	1263.3
x1 = 0.2525	888.142	884.423	1316.7	1300.5	1284.4
x1 = 0.3057	895.564	891.923	1333.9	1317.8	1301.7
x1 = 0.3476	900.631	896.968	1345.6	1329.3	1313.2
x1 = 0.3966	905.316	901.759	1356.4	1340.1	1324
x1 = 0.4491	909.413	905.905	1366.1	1349.7	1333.5
x1 = 0.501	912.93	909.441	1374.4	1358	1341.8
x1 = 0.541	915.316	911.864	1380.2	1363.7	1347.4
x1 = 0.5913	917.715	914.276	1386	1369.4	1353.1
x1 = 0.6445	920.109	916.724	1391.7	1374.9	1358.5
x1 = 0.6895	921.905	918.523	1396.6	1379.8	1363.2
x1 = 0.7391	923.626	920.287	1401.3	1384.2	1367.4
x1 = 0.8007	925.47	922.166	1407.1	1389.5	1372.5
x1 = 0.8243	926.211	922.909	1409.6	1391.8	1374.6
x1 = 0.8973	927.898	924.584	1416.7	1398	1380.2
x1 = 0.932	928.804	925.491	1420.3	1401.2	1383
x1 = 1	928.794	925.509	1431.5	1410.3	1390.4
